{"source": "the kinase profiling compilation of Christmann-Franck et al. (2016)", "test_in_all_cases": "KINOMEscan competition binding", "conditions_in_all_cases": "compound 10.0 µM", "key": {"RIPK2 (human)": {"biological_target": "RIPK2 (human) (UniProt O43353)"}, "PLK2 (human)": {"biological_target": "PLK2 (human) (UniProt Q9NYY3)"}, "CSK (human)": {"biological_target": "CSK (human) (UniProt P41240)"}, "OXSR1 (human)": {"biological_target": "OXSR1 (human) (UniProt O95747)", "sequence (O95747 whole entry, looked up)": "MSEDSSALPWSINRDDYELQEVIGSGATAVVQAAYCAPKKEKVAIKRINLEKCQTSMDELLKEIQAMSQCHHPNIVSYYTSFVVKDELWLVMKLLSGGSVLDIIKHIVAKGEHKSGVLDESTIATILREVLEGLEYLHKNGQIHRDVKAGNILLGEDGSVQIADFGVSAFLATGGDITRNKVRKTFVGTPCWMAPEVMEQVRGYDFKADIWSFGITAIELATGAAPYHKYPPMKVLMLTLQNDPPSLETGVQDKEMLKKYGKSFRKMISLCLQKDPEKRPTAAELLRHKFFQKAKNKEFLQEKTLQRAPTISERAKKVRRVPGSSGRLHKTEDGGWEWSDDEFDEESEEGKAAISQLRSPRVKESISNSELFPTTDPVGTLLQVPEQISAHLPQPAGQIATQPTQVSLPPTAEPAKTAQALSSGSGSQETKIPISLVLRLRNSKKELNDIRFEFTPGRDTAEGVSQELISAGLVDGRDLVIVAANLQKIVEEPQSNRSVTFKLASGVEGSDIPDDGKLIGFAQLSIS"}, "CSNK1A1L (human)": {"biological_target": "CSNK1A1L (human) (UniProt Q8N752)", "sequence (Q8N752 whole entry, looked up)": "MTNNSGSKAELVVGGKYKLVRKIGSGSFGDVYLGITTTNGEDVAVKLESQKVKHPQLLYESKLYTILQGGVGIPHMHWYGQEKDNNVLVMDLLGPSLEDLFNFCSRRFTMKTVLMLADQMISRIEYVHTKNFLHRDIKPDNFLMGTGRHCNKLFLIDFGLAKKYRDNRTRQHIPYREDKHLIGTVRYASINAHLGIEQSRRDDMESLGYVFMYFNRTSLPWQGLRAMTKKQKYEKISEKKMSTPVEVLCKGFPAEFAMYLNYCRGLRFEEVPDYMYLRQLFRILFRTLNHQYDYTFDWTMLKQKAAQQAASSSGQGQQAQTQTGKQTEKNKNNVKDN"}, "MYO3B (human)": {"biological_target": "MYO3B (human) (UniProt Q8WXR4)"}, "MST4 (human)": {"biological_target": "MST4 (human) (UniProt Q9P289)"}, "PKMYT1 (human)": {"biological_target": "PKMYT1 (human) (UniProt Q99640)"}, "MAP4K3 (human)": {"biological_target": "MAP4K3 (human) (UniProt Q8IVH8)"}, "ULK2 (human)": {"biological_target": "ULK2 (human) (UniProt Q8IYT8)"}, "PIK3CD (human)": {"biological_target": "PIK3CD (human) (UniProt O00329)"}, "ROS1 (human)": {"biological_target": "ROS1 (human) (UniProt P08922)"}, "YES1 (human)": {"biological_target": "YES1 (human) (UniProt P07947)"}, "LATS1 (human)": {"biological_target": "LATS1 (human) (UniProt O95835)", "sequence (O95835 whole entry, looked up)": "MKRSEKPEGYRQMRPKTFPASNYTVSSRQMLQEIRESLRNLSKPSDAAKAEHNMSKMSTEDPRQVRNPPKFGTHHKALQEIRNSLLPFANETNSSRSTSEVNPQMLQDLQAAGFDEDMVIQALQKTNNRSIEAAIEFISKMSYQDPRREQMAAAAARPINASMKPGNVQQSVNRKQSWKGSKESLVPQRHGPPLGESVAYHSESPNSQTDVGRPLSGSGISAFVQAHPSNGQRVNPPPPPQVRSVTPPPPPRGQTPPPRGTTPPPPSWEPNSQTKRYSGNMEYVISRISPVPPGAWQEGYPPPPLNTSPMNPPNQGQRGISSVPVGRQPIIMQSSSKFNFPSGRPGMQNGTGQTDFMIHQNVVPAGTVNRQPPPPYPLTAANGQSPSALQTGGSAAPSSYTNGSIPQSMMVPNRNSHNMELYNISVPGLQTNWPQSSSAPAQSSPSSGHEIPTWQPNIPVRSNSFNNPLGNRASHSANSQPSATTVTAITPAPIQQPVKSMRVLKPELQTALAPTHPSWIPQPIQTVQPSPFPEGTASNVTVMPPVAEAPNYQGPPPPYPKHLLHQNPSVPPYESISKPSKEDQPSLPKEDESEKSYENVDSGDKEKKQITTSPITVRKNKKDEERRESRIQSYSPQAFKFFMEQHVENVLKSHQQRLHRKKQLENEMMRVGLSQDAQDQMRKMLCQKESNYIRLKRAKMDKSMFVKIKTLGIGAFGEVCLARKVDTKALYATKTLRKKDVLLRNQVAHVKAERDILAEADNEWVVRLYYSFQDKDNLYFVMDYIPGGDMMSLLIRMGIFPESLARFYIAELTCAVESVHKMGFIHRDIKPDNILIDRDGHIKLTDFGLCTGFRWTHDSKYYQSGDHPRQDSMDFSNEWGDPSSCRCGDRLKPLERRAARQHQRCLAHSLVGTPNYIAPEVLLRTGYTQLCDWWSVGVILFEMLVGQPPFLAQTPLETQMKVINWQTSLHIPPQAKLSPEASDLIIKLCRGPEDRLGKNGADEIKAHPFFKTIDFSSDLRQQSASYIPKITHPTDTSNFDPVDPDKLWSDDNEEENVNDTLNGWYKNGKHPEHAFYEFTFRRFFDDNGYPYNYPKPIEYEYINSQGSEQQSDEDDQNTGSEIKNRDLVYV"}, "RAF1 (human)": {"biological_target": "RAF1 (human) (UniProt P04049)"}, "DYRK1A (human)": {"biological_target": "DYRK1A (human) (UniProt Q13627)"}, "HIPK3 (human)": {"biological_target": "HIPK3 (human) (UniProt Q9H422)"}, "[1]": {"biological_target": "TYK2 JH2 pseudokinase (human) (UniProt P29597)"}, "PRKCD (human)": {"biological_target": "PRKCD (human) (UniProt Q05655)"}, "[2]": {"test_system": "FLT3 (human), P36888 [ITD]"}, "TLK2 (human)": {"biological_target": "TLK2 (human) (UniProt Q86UE8)"}, "DDR1 (human)": {"biological_target": "DDR1 (human) (UniProt Q08345)"}, "[3]": {"biological_target": "JAK1 JH2 pseudokinase (human) (UniProt P23458)"}, "PRKCQ (human)": {"biological_target": "PRKCQ (human) (UniProt Q04759)"}, "[4]": {"test_system": "PIK3CA (human), P42336 [E545K]"}, "RET (human)": {"biological_target": "RET (human) (UniProt P07949)"}, "HIPK2 (human)": {"biological_target": "HIPK2 (human) (UniProt Q9H2X6)"}, "CDK15 (human)": {"biological_target": "CDK15 (human) (UniProt Q96Q40)"}, "PRPF4B (human)": {"biological_target": "PRPF4B (human) (UniProt Q13523)"}, "CAMKK2 (human)": {"biological_target": "CAMKK2 (human) (UniProt Q96RR4)"}, "CDK14 (human)": {"biological_target": "CDK14 (human) (UniProt O94921)"}, "PRKD2 (human)": {"biological_target": "PRKD2 (human) (UniProt Q9BZL6)"}, "MYLK (human)": {"biological_target": "MYLK (human) (UniProt Q15746)", "sequence (Q15746 whole entry, looked up)": "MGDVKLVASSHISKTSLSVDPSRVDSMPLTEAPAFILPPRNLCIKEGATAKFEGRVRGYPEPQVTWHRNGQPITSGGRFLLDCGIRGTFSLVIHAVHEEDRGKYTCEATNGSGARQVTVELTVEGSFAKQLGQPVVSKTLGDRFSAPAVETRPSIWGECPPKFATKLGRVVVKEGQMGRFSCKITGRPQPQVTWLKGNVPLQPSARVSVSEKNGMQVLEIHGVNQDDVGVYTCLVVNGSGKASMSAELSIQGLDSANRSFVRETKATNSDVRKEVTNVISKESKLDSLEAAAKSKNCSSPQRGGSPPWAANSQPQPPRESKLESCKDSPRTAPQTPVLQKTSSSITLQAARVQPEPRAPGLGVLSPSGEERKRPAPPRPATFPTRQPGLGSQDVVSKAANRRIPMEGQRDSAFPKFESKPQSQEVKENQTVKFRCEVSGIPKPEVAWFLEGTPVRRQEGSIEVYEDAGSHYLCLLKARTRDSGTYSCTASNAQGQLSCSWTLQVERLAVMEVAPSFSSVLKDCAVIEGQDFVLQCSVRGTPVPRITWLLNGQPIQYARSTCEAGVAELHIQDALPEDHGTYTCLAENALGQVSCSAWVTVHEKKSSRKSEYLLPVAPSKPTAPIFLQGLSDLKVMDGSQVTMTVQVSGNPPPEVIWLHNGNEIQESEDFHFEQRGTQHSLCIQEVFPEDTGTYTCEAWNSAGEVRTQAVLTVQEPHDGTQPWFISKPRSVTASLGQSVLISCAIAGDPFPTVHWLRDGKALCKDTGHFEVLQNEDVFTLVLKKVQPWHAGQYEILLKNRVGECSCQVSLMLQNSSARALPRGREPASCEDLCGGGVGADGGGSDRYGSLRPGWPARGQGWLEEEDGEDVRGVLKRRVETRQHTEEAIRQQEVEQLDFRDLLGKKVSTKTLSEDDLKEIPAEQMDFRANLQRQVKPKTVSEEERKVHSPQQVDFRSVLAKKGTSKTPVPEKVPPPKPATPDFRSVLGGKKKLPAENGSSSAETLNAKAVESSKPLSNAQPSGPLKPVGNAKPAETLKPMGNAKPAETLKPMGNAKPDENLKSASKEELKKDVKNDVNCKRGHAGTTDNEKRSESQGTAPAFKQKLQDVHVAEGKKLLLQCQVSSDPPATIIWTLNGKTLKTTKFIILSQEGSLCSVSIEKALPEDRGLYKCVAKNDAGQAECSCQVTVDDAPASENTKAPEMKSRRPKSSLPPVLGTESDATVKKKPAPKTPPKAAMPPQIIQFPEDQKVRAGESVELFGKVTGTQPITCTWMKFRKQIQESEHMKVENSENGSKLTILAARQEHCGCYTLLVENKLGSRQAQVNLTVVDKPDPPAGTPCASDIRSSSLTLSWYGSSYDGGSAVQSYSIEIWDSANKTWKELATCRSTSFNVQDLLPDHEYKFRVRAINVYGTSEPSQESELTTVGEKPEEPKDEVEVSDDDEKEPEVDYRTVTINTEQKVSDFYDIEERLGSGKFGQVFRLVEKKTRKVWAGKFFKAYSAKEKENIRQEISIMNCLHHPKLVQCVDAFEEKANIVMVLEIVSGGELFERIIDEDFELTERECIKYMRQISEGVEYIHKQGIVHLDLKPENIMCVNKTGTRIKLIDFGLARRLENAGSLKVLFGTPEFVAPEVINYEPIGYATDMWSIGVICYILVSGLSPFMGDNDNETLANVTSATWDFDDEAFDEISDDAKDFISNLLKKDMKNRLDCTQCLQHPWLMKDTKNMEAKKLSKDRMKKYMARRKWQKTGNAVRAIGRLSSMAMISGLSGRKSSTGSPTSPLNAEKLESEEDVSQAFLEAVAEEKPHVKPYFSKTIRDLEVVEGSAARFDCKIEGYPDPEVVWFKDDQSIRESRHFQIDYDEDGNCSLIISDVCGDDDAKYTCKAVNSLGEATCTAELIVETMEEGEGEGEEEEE"}, "RPS6KA2 KD1 (human)": {"biological_target": "RPS6KA2 KD1 (human) (UniProt Q15349)"}, "MUSK (human)": {"biological_target": "MUSK (human) (UniProt O15146)"}, "FGFR4 (human)": {"biological_target": "FGFR4 (human) (UniProt P22455)"}, "FGFR1 (human)": {"biological_target": "FGFR1 (human) (UniProt P11362)", "sequence (P11362 whole entry, looked up)": "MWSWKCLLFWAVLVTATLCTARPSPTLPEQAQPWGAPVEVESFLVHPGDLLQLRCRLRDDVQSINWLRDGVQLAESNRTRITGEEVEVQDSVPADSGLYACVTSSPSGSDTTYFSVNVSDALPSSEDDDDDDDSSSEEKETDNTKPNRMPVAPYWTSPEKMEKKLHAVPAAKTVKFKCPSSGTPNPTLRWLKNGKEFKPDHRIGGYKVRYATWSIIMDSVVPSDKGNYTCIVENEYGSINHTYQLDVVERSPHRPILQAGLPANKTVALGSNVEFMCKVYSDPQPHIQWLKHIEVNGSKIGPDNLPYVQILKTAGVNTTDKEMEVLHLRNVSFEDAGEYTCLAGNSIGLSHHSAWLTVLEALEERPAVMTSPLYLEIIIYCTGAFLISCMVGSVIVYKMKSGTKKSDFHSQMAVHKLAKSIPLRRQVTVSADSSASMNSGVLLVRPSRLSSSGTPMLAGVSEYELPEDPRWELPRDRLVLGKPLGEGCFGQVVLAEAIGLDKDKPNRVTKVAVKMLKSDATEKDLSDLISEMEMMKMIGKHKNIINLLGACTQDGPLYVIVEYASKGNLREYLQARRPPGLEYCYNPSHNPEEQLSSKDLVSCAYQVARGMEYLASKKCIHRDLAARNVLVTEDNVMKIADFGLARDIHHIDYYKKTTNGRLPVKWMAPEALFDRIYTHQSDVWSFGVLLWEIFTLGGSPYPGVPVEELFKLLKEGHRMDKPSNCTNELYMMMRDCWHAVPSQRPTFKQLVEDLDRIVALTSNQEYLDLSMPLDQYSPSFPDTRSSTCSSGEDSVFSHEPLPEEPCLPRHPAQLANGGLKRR"}, "ERBB4 (human)": {"biological_target": "ERBB4 (human) (UniProt Q15303)"}, "PRKX (human)": {"biological_target": "PRKX (human) (UniProt P51817)", "sequence (P51817 whole entry, looked up)": "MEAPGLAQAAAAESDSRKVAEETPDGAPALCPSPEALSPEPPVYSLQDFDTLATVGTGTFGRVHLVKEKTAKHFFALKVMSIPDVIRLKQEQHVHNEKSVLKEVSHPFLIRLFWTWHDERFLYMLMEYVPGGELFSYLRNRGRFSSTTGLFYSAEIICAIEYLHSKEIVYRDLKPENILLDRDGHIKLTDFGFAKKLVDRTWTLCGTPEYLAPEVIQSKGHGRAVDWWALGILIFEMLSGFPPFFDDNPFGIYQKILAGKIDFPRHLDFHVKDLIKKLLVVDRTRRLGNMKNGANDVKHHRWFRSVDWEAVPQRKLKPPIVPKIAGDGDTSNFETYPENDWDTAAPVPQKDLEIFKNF"}, "ADCK4 (human)": {"biological_target": "ADCK4 (human) (UniProt Q96D53)"}, "TSSK1B (human)": {"biological_target": "TSSK1B (human) (UniProt Q9BXA7)"}}}
{"smiles": "Cc1cnc(-c2cnc(NCCNc3ccc(C#N)cn3)nc2-c2ccc(Cl)cc2Cl)[nH]1", "values": [{"measurement": "kinase still bound, per cent of control", "setting": "RIPK2 (human)", "value": 100, "unit": "%"}, {"measurement": "kinase still bound, per cent of control", "setting": "PLK2 (human)", "value": 79, "unit": "%"}, {"measurement": "kinase still bound, per cent of control", "setting": "CSK (human)", "value": 100, "unit": "%"}, {"measurement": "kinase still bound, per cent of control", "setting": "OXSR1 (human)", "value": 70, "unit": "%"}, {"measurement": "kinase still bound, per cent of control", "setting": "CSNK1A1L (human)", "value": 100, "unit": "%"}, {"measurement": "kinase still bound, per cent of control", "setting": "MYO3B (human)", "value": 100, "unit": "%"}, {"measurement": "kinase still bound, per cent of control", "setting": "MST4 (human)", "value": 82, "unit": "%"}, {"measurement": "kinase still bound, per cent of control", "setting": "PKMYT1 (human)", "value": 100, "unit": "%"}, {"measurement": "kinase still bound, per cent of control", "setting": "MAP4K3 (human)", "value": 96, "unit": "%"}, {"measurement": "kinase still bound, per cent of control", "setting": "ULK2 (human)", "value": 96, "unit": "%"}, {"measurement": "kinase still bound, per cent of control", "setting": "PIK3CD (human)", "value": 93, "unit": "%"}, {"measurement": "kinase still bound, per cent of control", "setting": "ROS1 (human)", "value": 100, "unit": "%"}, {"measurement": "kinase still bound, per cent of control", "setting": "YES1 (human)", "value": 100, "unit": "%"}, {"measurement": "kinase still bound, per cent of control", "setting": "LATS1 (human)", "value": 100, "unit": "%"}, {"measurement": "kinase still bound, per cent of control", "setting": "RAF1 (human)", "value": 100, "unit": "%"}, {"measurement": "kinase still bound, per cent of control", "setting": "DYRK1A (human)", "value": 100, "unit": "%"}, {"measurement": "kinase still bound, per cent of control", "setting": "HIPK3 (human)", "value": 100, "unit": "%"}, {"measurement": "kinase still bound, per cent of control", "setting": "[1]", "value": 68, "unit": "%"}, {"measurement": "kinase still bound, per cent of control", "setting": "PRKCD (human)", "value": 100, "unit": "%"}, {"measurement": "kinase still bound, per cent of control", "setting": "[2]", "value": 74, "unit": "%"}, {"measurement": "kinase still bound, per cent of control", "setting": "TLK2 (human)", "value": 80, "unit": "%"}, {"measurement": "kinase still bound, per cent of control", "setting": "DDR1 (human)", "value": 100, "unit": "%"}, {"measurement": "kinase still bound, per cent of control", "setting": "[3]", "value": 87, "unit": "%"}, {"measurement": "kinase still bound, per cent of control", "setting": "PRKCQ (human)", "value": 100, "unit": "%"}, {"measurement": "kinase still bound, per cent of control", "setting": "[4]", "value": 100, "unit": "%"}, {"measurement": "kinase still bound, per cent of control", "setting": "RET (human)", "value": 100, "unit": "%"}, {"measurement": "kinase still bound, per cent of control", "setting": "HIPK2 (human)", "value": 100, "unit": "%"}, {"measurement": "kinase still bound, per cent of control", "setting": "CDK15 (human)", "value": 95, "unit": "%"}, {"measurement": "kinase still bound, per cent of control", "setting": "PRPF4B (human)", "value": 100, "unit": "%"}, {"measurement": "kinase still bound, per cent of control", "setting": "CAMKK2 (human)", "value": 100, "unit": "%"}, {"measurement": "kinase still bound, per cent of control", "setting": "CDK14 (human)", "value": 100, "unit": "%"}, {"measurement": "kinase still bound, per cent of control", "setting": "PRKD2 (human)", "value": 100, "unit": "%"}, {"measurement": "kinase still bound, per cent of control", "setting": "MYLK (human)", "value": 59, "unit": "%"}, {"measurement": "kinase still bound, per cent of control", "setting": "RPS6KA2 KD1 (human)", "value": 70, "unit": "%"}, {"measurement": "kinase still bound, per cent of control", "setting": "MUSK (human)", "value": 100, "unit": "%"}, {"measurement": "kinase still bound, per cent of control", "setting": "FGFR4 (human)", "value": 100, "unit": "%"}, {"measurement": "kinase still bound, per cent of control", "setting": "FGFR1 (human)", "value": 100, "unit": "%"}, {"measurement": "kinase still bound, per cent of control", "setting": "ERBB4 (human)", "value": 100, "unit": "%"}, {"measurement": "kinase still bound, per cent of control", "setting": "PRKX (human)", "value": 100, "unit": "%"}, {"measurement": "kinase still bound, per cent of control", "setting": "ADCK4 (human)", "value": 100, "unit": "%"}, {"measurement": "kinase still bound, per cent of control", "setting": "TSSK1B (human)", "value": 94, "unit": "%"}]}
{"smiles": "COc1ccc(CNC(=O)Nc2ncc([N+](=O)[O-])s2)cc1", "values": [{"measurement": "kinase still bound, per cent of control", "setting": "RIPK2 (human)", "value": 95, "unit": "%"}, {"measurement": "kinase still bound, per cent of control", "setting": "PLK2 (human)", "value": 100, "unit": "%"}, {"measurement": "kinase still bound, per cent of control", "setting": "CSK (human)", "value": 100, "unit": "%"}, {"measurement": "kinase still bound, per cent of control", "setting": "OXSR1 (human)", "value": 100, "unit": "%"}, {"measurement": "kinase still bound, per cent of control", "setting": "CSNK1A1L (human)", "value": 99, "unit": "%"}, {"measurement": "kinase still bound, per cent of control", "setting": "MYO3B (human)", "value": 100, "unit": "%"}, {"measurement": "kinase still bound, per cent of control", "setting": "MST4 (human)", "value": 99, "unit": "%"}, {"measurement": "kinase still bound, per cent of control", "setting": "PKMYT1 (human)", "value": 53, "unit": "%"}, {"measurement": "kinase still bound, per cent of control", "setting": "MAP4K3 (human)", "value": 90, "unit": "%"}, {"measurement": "kinase still bound, per cent of control", "setting": "ULK2 (human)", "value": 100, "unit": "%"}, {"measurement": "kinase still bound, per cent of control", "setting": "PIK3CD (human)", "value": 100, "unit": "%"}, {"measurement": "kinase still bound, per cent of control", "setting": "ROS1 (human)", "value": 100, "unit": "%"}, {"measurement": "kinase still bound, per cent of control", "setting": "YES1 (human)", "value": 83, "unit": "%"}, {"measurement": "kinase still bound, per cent of control", "setting": "LATS1 (human)", "value": 100, "unit": "%"}, {"measurement": "kinase still bound, per cent of control", "setting": "RAF1 (human)", "value": 63, "unit": "%"}, {"measurement": "kinase still bound, per cent of control", "setting": "DYRK1A (human)", "value": 100, "unit": "%"}, {"measurement": "kinase still bound, per cent of control", "setting": "HIPK3 (human)", "value": 100, "unit": "%"}, {"measurement": "kinase still bound, per cent of control", "setting": "[1]", "value": 66, "unit": "%"}, {"measurement": "kinase still bound, per cent of control", "setting": "PRKCD (human)", "value": 100, "unit": "%"}, {"measurement": "kinase still bound, per cent of control", "setting": "TLK2 (human)", "value": 93, "unit": "%"}, {"measurement": "kinase still bound, per cent of control", "setting": "DDR1 (human)", "value": 100, "unit": "%"}, {"measurement": "kinase still bound, per cent of control", "setting": "[3]", "value": 89, "unit": "%"}, {"measurement": "kinase still bound, per cent of control", "setting": "PRKCQ (human)", "value": 100, "unit": "%"}, {"measurement": "kinase still bound, per cent of control", "setting": "[4]", "value": 100, "unit": "%"}, {"measurement": "kinase still bound, per cent of control", "setting": "RET (human)", "value": 100, "unit": "%"}, {"measurement": "kinase still bound, per cent of control", "setting": "HIPK2 (human)", "value": 90, "unit": "%"}, {"measurement": "kinase still bound, per cent of control", "setting": "CDK15 (human)", "value": 100, "unit": "%"}, {"measurement": "kinase still bound, per cent of control", "setting": "PRPF4B (human)", "value": 100, "unit": "%"}, {"measurement": "kinase still bound, per cent of control", "setting": "CAMKK2 (human)", "value": 100, "unit": "%"}, {"measurement": "kinase still bound, per cent of control", "setting": "CDK14 (human)", "value": 95, "unit": "%"}, {"measurement": "kinase still bound, per cent of control", "setting": "PRKD2 (human)", "value": 93, "unit": "%"}, {"measurement": "kinase still bound, per cent of control", "setting": "MYLK (human)", "value": 100, "unit": "%"}, {"measurement": "kinase still bound, per cent of control", "setting": "RPS6KA2 KD1 (human)", "value": 100, "unit": "%"}, {"measurement": "kinase still bound, per cent of control", "setting": "MUSK (human)", "value": 100, "unit": "%"}, {"measurement": "kinase still bound, per cent of control", "setting": "FGFR4 (human)", "value": 100, "unit": "%"}, {"measurement": "kinase still bound, per cent of control", "setting": "FGFR1 (human)", "value": 100, "unit": "%"}, {"measurement": "kinase still bound, per cent of control", "setting": "ERBB4 (human)", "value": 100, "unit": "%"}, {"measurement": "kinase still bound, per cent of control", "setting": "PRKX (human)", "value": 42, "unit": "%"}, {"measurement": "kinase still bound, per cent of control", "setting": "ADCK4 (human)", "value": 100, "unit": "%"}, {"measurement": "kinase still bound, per cent of control", "setting": "TSSK1B (human)", "value": 91, "unit": "%"}]}
